Data reported in ChEMBL document CHEMBL4145544, “Discovery and optimization of 1-(1H-indol-1-yl)ethanone derivatives as CBP/EP300 bromodomain inhibitors for the treatment of castration-resistant prostate cancer” (Eur J Med Chem, 2018).
Calls of active or inactive are those of the source. No cut-off for these calls is given here.

Key:
[1] = test system: LNCaP; experiment: Potency index, ratio of enzalutamide IC50 to compound IC50 for antiproliferative activity against human LNCAP cells; type: functional
[2] = test system: CWR22R; experiment: Anticlonogenic activity against human 22Rv1 cells at 4 uM after 14 days by crystal violet staining based assay relative to control; type: functional
[3] = test system: LNCaP C4-2B; experiment: Anticlonogenic activity against human C4-2B cells after 14 days by crystal violet staining based assay; type: functional, cell-based
[4] = test system: LNCaP; experiment: Antiproliferative activity against human LNCAP cells after 72 hrs by Cell-Titer Glo assay; type: functional, cell-based
[5] = test system: CWR22R; experiment: Potency index, ratio of enzalutamide IC50 to compound IC50 for antiproliferative activity against human 22Rv1 cells; type: functional
[6] = test system: LNCaP C4-2B; experiment: Anticlonogenic activity against human C4-2B cells at 4 uM after 14 days by crystal violet staining based assay relative to control; type: functional
[7] = test system: CWR22R; experiment: cells; settings: Homo sapiens, 22Rv1, 72 h
Description: (§1) Antiproliferative activity against human 22Rv1 cells after 72 hrs by Cell-Titer Glo assay

[8] = test system: CWR22R; experiment: Anticlonogenic activity against human 22Rv1 cells after 14 days by crystal violet staining based assay; type: functional, cell-based
[9] = biological target: T1, CREB-binding protein (Homo sapiens, UniProt Q92793); experiment: Binding affinity to human His6-tagged CBP (R1081 to G1197 residues) expressed in Escherichia coli BL21(DE3) assessed as change in melting temperature at 200 uM after 30 mins by SYPRO orange dye based fluorescence assay
[10] = biological target: Bromodomain-containing protein 9 (Homo sapiens) (UniProt Q9H8M2); experiment: Binding affinity to human His6-tagged BRD9 (L14 to Q134 residues) expressed in Escherichia coli BL21(DE3) assessed as change in melting temperature at 200 uM after 30 mins by SYPRO orange dye based fluorescence assay
[11] = biological target: T2, Transcription initiation factor TFIID subunit 1 (Homo sapiens, UniProt P21675); experiment: Binding affinity to human His6-tagged TAF-1 (R1377 to D1503 residues) expressed in Escherichia coli BL21(DE3) assessed as change in melting temperature at 200 uM after 30 mins by SYPRO orange dye based fluorescence assay
[12] = biological target: T3, Bromodomain-containing protein 9 (Homo sapiens, UniProt Q9H8M2); experiment: Inhibition of biotinylated-H4KAc4 binding to human His6-tagged BRD9 (L14 to Q134 residues) expressed in Escherichia coli BL21(DE3) after 2.5 hrs by luminescence-based AlphaScreen assay
T3 sequence (Q9H8M2 whole entry): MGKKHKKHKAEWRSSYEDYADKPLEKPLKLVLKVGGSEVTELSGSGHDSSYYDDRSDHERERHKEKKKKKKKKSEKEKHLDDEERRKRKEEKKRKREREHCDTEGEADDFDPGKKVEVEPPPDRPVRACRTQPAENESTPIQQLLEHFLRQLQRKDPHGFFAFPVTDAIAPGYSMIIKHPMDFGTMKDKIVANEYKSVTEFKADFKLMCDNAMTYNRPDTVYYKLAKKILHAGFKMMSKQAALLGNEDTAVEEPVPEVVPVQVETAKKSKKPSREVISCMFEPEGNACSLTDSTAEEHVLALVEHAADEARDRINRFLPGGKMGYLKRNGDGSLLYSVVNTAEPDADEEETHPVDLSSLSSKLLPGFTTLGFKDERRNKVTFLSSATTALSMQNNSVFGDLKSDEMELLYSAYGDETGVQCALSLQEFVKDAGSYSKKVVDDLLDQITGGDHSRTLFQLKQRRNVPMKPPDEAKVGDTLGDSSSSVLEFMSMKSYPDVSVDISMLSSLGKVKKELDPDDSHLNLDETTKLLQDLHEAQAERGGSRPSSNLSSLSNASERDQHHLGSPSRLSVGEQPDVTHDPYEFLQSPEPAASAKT

[13] = biological target: T2, Transcription initiation factor TFIID subunit 1; experiment: Inhibition of biotinylated-H4KAc4 binding to human His6-tagged TAF-1 (R1377 to D1503 residues) expressed in Escherichia coli BL21(DE3) after 2.5 hrs by luminescence-based AlphaScreen assay
[14] = biological target: T4, Bromodomain-containing protein 4 (Homo sapiens, UniProt O60885); experiment: Binding affinity to human His6-tagged BRD4 bromodomain-1 (N44 to E168 residues) expressed in Escherichia coli BL21(DE3) assessed as change in melting temperature at 200 uM after 30 mins by SYPRO orange dye based fluorescence assay
[15] = biological target: T5, Histone acetyltransferase KAT2B (Homo sapiens, UniProt Q92831); experiment: Inhibition of biotinylated-H4KAc4 binding to human His6-tagged PCAF (G715 to D831 residues) expressed in Escherichia coli BL21(DE3) after 2.5 hrs by luminescence-based AlphaScreen assay
[16] = biological target: T4, Bromodomain-containing protein 4; experiment: Inhibition of biotinylated-H4KAc4 binding to human His6-tagged BRD4 bromodomain-1 (N44 to E168 residues) expressed in Escherichia coli BL21(DE3) after 2.5 hrs by luminescence-based AlphaScreen assay
[17] = biological target: T6, Histone acetyltransferase p300 (Homo sapiens, UniProt Q09472); experiment: Binding affinity to human His6-tagged EP300 (A1040 to G1161 residues) expressed in Escherichia coli BL21(DE3) assessed as change in melting temperature at 200 uM after 30 mins by SYPRO orange dye based fluorescence assay
T6 sequence (Q09472 whole entry, the tested form may be a part): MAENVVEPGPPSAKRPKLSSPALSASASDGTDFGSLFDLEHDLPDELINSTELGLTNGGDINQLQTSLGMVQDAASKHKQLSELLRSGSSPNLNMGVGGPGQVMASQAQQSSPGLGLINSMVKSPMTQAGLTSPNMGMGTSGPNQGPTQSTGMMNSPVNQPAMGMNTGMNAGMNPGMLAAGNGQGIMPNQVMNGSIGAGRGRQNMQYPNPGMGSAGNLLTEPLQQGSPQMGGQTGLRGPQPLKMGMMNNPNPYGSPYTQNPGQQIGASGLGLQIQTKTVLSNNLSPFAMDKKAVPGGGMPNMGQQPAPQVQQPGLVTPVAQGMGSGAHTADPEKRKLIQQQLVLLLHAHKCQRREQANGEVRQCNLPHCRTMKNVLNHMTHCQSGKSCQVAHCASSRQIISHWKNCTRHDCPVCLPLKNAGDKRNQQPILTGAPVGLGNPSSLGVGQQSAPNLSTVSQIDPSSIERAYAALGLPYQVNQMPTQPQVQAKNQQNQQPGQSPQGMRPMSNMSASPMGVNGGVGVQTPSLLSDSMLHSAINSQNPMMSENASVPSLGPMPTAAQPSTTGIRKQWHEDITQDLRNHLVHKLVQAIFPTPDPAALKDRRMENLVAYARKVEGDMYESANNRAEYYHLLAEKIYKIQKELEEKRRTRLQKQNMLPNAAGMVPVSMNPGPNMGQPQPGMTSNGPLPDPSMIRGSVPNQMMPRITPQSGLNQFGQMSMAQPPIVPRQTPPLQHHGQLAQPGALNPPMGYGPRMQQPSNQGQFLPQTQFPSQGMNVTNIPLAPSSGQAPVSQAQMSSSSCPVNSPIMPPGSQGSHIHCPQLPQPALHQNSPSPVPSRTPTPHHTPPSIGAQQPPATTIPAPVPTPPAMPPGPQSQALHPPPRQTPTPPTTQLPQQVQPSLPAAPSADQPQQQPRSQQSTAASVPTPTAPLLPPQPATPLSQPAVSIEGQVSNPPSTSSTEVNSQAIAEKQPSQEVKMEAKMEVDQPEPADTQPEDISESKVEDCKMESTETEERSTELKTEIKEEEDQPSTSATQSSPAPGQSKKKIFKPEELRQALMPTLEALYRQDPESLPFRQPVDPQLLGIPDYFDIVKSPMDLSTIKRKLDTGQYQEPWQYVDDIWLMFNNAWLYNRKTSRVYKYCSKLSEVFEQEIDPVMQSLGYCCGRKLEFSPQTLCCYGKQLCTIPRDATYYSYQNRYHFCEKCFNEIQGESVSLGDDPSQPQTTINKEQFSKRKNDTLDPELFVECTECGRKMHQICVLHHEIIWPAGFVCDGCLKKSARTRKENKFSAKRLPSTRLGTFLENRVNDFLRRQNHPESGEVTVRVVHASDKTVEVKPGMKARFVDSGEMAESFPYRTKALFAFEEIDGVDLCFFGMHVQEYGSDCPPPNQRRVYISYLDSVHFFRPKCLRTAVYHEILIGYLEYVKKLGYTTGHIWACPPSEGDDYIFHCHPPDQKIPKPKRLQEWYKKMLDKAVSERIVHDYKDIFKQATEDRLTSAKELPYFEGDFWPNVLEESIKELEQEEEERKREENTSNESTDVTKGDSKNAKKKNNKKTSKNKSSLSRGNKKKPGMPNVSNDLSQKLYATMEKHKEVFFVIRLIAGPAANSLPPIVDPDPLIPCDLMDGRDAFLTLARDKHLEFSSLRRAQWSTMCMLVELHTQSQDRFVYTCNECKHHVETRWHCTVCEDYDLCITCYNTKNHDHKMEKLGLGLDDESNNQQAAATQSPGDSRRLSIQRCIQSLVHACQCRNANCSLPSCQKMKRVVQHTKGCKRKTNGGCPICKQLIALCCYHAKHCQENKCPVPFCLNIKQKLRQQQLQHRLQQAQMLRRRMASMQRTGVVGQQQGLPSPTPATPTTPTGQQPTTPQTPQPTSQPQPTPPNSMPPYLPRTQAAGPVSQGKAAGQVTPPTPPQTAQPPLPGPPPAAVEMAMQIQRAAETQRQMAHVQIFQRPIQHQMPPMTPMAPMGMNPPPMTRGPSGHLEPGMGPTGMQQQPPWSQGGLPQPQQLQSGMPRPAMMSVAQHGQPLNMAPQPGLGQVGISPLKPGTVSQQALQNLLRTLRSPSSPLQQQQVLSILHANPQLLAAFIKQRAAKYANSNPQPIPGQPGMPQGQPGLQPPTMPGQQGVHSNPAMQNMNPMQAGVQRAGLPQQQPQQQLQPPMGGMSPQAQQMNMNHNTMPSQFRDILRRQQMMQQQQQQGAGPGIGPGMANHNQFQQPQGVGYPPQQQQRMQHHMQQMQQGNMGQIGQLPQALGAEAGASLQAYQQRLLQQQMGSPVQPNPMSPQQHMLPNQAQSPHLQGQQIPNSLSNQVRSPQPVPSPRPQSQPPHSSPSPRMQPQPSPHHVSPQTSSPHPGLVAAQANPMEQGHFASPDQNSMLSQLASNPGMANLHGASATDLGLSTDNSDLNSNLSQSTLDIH

[18] = biological target: T7, Transcription intermediary factor 1-alpha (Homo sapiens, UniProt O15164); experiment: Inhibition of biotinylated-H4KAc4 binding to human His6-tagged TIF-1 (G896 to E1014 residues) expressed in Escherichia coli BL21(DE3) after 2.5 hrs by luminescence-based AlphaScreen assay
T7 sequence (O15164 whole entry): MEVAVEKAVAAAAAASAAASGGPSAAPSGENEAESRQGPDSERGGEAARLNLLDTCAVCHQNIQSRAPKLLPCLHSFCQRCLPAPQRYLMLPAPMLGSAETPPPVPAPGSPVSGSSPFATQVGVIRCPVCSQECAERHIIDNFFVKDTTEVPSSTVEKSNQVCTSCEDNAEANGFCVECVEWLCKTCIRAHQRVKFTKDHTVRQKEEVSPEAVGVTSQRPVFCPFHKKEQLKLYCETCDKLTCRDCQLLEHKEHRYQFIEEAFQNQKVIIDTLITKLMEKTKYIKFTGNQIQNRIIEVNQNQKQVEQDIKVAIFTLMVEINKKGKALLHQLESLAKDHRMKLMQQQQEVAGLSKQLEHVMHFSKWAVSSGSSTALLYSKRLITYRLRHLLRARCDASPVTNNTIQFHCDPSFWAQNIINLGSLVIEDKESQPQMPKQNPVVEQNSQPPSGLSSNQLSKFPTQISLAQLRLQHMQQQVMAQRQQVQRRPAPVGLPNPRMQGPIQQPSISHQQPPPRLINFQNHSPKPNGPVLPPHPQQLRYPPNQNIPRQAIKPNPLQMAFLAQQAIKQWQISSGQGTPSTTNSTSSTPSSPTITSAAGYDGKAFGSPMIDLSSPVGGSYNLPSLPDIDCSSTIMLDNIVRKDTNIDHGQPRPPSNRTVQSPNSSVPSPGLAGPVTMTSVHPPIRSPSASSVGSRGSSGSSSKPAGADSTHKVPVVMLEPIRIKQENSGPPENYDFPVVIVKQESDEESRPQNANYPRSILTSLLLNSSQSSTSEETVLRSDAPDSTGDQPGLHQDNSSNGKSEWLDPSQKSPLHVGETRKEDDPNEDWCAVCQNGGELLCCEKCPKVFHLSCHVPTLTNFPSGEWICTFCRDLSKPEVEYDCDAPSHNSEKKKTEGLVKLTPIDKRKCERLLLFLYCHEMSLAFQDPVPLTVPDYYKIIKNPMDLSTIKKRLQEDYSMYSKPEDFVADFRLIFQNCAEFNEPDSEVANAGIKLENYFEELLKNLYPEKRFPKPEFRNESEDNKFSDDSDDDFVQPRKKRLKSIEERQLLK

[19] = biological target: T8, Bromodomain adjacent to zinc finger domain protein 2B (Homo sapiens, UniProt Q9UIF8); experiment: Inhibition of biotinylated-H4KAc4 binding to human His6-tagged BAZ2B (S1858 to S1972 residues) expressed in Escherichia coli BL21(DE3) after 2.5 hrs by luminescence-based AlphaScreen assay
[20] = biological target: T1, CREB-binding protein; experiment: Inhibition of biotinylated-H4KAc4 binding to human His6-tagged CBP (R1081 to G1197 residues) expressed in Escherichia coli BL21(DE3) after 2.5 hrs by luminescence-based AlphaScreen assay
Target sequence in this assay (Q92793 whole entry, the tested form may be a part): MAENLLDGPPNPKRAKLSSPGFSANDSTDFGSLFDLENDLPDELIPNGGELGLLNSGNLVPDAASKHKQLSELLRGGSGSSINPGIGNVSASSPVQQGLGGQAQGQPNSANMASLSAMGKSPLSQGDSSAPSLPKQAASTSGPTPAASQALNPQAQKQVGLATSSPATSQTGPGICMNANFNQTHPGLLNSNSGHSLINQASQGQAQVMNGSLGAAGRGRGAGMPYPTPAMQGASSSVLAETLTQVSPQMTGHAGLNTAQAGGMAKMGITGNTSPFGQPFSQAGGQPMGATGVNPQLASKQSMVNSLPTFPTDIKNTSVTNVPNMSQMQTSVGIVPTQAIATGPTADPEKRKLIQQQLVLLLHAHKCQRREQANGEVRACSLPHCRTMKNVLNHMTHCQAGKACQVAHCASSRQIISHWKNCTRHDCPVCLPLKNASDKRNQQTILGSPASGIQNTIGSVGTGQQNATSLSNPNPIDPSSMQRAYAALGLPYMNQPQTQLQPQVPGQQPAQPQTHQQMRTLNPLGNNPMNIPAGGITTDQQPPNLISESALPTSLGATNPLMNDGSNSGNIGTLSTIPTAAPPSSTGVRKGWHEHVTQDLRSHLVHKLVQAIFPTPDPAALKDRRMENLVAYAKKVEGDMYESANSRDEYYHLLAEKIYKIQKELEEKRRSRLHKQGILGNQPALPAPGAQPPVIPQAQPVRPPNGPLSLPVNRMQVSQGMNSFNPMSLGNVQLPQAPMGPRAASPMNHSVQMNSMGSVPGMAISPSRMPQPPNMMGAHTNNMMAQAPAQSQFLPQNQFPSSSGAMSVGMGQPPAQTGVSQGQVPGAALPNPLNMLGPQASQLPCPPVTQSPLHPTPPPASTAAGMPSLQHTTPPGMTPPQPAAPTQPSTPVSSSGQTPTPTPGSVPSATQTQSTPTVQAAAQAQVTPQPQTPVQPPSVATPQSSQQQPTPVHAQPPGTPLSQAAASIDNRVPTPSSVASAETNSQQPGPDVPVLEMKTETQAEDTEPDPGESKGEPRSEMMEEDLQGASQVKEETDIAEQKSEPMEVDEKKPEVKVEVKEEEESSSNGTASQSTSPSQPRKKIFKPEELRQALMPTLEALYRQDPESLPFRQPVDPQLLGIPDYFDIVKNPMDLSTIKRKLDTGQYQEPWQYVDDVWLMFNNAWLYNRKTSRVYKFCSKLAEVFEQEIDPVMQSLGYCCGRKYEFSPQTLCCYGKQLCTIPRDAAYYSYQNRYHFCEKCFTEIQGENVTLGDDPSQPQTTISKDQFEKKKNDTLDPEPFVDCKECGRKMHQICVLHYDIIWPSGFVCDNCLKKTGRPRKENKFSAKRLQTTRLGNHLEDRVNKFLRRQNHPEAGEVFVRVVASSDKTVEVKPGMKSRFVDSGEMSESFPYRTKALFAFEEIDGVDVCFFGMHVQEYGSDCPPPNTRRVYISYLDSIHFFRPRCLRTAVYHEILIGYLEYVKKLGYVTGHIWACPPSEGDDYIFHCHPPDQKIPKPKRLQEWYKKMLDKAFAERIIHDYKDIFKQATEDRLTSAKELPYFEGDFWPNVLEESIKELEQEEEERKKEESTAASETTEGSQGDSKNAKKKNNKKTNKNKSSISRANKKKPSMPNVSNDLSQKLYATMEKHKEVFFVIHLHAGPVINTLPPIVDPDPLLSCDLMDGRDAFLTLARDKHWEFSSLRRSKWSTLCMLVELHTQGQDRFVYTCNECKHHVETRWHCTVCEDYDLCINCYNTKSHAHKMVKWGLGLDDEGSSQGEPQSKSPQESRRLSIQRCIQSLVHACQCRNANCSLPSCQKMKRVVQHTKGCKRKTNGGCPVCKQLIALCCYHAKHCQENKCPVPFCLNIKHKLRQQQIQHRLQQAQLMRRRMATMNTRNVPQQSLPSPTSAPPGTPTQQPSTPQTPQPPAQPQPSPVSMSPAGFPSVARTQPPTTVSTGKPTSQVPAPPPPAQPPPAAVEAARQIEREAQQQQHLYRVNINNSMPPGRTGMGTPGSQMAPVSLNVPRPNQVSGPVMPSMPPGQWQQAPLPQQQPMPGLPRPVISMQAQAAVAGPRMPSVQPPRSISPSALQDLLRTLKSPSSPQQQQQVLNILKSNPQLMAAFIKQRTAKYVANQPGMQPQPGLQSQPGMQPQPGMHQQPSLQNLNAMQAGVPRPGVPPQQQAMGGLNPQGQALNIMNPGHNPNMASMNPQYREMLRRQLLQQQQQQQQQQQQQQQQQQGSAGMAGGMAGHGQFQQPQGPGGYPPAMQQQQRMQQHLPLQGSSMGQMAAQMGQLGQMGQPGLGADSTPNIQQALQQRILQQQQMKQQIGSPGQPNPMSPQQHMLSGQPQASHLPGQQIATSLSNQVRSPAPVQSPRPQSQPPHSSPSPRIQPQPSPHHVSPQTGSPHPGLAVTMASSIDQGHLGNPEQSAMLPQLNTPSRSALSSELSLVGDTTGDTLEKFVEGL

[21] = biological target: T5, Histone acetyltransferase KAT2B; experiment: Binding affinity to human His6-tagged PCAF (G715 to D831 residues) expressed in Escherichia coli BL21(DE3) assessed as change in melting temperature at 200 uM after 30 mins by SYPRO orange dye based fluorescence assay
[22] = biological target: Transcription intermediary factor 1-alpha (Homo sapiens) (UniProt O15164); experiment: Binding affinity to human His6-tagged TIF-1 (G896 to E1014 residues) expressed in Escherichia coli BL21(DE3) assessed as change in melting temperature at 200 uM after 30 mins by SYPRO orange dye based fluorescence assay
[23] = biological target: T8, Bromodomain adjacent to zinc finger domain protein 2B; experiment: Binding affinity to human His6-tagged BAZ2B (S1858 to S1972 residues) expressed in Escherichia coli BL21(DE3) assessed as change in melting temperature at 200 uM after 30 mins by SYPRO orange dye based fluorescence assay
[24] = test system: CWR22R
Description: as §1

[25] = biological target: T6, Histone acetyltransferase p300; experiment: Inhibition of biotinylated-H4KAc4 binding to human His6-tagged EP300 (A1040 to G1161 residues) expressed in Escherichia coli BL21(DE3) after 2.5 hrs by luminescence-based AlphaScreen assay
[26] = biological target: T9, CREB-binding protein/Histone acetyltransferase p300 (Homo sapiens) (UniProt Q09472+Q92793); experiment: Inhibition of EP300/CBP in human LNCAP cells assessed as downregulation of Myc mRNA expression at 1 to 5 uM after 48 hrs by qRT-PCR method; type: cell-based
T9 sequence (Q09472 whole entry, looked up): as the sequence (Q09472 whole entry, the tested form may be a part) above
T9 sequence (Q92793 whole entry, looked up): as the sequence (Q92793 whole entry, the tested form may be a part) above

[27] = biological target: T9, CREB-binding protein/Histone acetyltransferase p300 (Homo sapiens); experiment: Inhibition of EP300/CBP in human LNCAP cells assessed as downregulation of AR-regulated TMPRSS2 mRNA expression at 1 to 5 uM after 48 hrs by qRT-PCR method; type: cell-based
[28] = biological target: T9, CREB-binding protein/Histone acetyltransferase p300 (Homo sapiens); experiment: Inhibition of EP300/CBP in human LNCAP cells assessed as downregulation of AR-regulated PSA mRNA expression at 1 to 5 uM after 48 hrs by qRT-PCR method; type: cell-based
[29] = biological target: T9, CREB-binding protein/Histone acetyltransferase p300 (Homo sapiens); experiment: Inhibition of EP300/CBP in human LNCAP cells assessed as downregulation of AR-regulated KLK2 mRNA expression at 1 to 5 uM after 48 hrs by qRT-PCR method; type: cell-based
[30] = test system: L02; experiment: Antiproliferative activity against human HL7702 cells after 96 hrs by Cell-Titer Glo assay; type: cell-based; settings: L02, 96 h
[31] = test system: PC-3; experiment: Antiproliferative activity against human PC3 cells after 96 hrs by Cell-Titer Glo assay; type: functional, cell-based; settings: PC-3, 96 h
[32] = biological target: T9, CREB-binding protein/Histone acetyltransferase p300 (Homo sapiens); experiment: Inhibition of EP300/CBP in human LNCAP cells transfected with PSA-Luc reporter plasmid after 24 hrs by luciferase reporter gene assay; type: cell-based
[33] = test system: HFL1; experiment: Antiproliferative activity against HFL1 cells after 72 hrs by Cell-Titer Glo assay; type: cell-based; settings: Homo sapiens, HFL1, 72 h
[34] = test system: MDA-MB-231; experiment: Antiproliferative activity against human MDA-MB-231 cells after 96 hrs by Cell-Titer Glo assay; type: functional, cell-based; settings: MDA-MB-231, 96 h
[35] = test system: Hs-578T; experiment: Antiproliferative activity against human Hs 578T cells after 72 hrs by Cell-Titer Glo assay; type: functional, cell-based
[36] = test system: MCF7; experiment: Antiproliferative activity against human MCF7 cells after 96 hrs by Cell-Titer Glo assay; type: functional, cell-based; settings: MCF7, 96 h
[37] = biological target: T9, CREB-binding protein/Histone acetyltransferase p300 (Homo sapiens); experiment: Inhibition of EP300/CBP in human LNCAP cells assessed as downregulation of full length AR mRNA expression at 1 to 5 uM after 48 hrs by qRT-PCR method; type: cell-based
[38] = Homo sapiens, LNCaP, 72 h, read-out: IC50

COc1ccc2c(c1)c(C(=O)Nc1cc(C(=O)OC(C)(C)C)cc(-c3cnn(C)c3)c1)cn2C(C)=O
Ratio IC50 [1]: 17
Activity [2]: <10%
Activity [3]: Dose-dependent effect
IC50 [4, 38]: 1.28 µM
Ratio IC50 [5]: 17
Activity [6]: <10%
IC50 [7]: 2.22 µM
Activity [8]: Dose-dependent effect

COc1ccc2c(c1)c(C(=O)Nc1cc(C(=O)O)cc(-c3cnn(C)c3)c1)cn2C(C)=O
ΔTm [9]: 5.7 °C
ΔTm [10]: -0.9 °C
ΔTm [11]: 0.9 °C
IC50 [12]: > 20 µM
IC50 [13]: > 20 µM
ΔTm [14]: 1.1 °C
IC50 [15]: > 20 µM
IC50 [16]: > 20 µM
ΔTm [17]: 5.7 °C
Activity [3]: inactive
IC50 [18]: > 20 µM
IC50 ([4]; lncap): Not Active
IC50 [19]: > 20 µM
IC50 [20]: 0.16 µM
ΔTm [21]: -1.5 °C
Activity [8]: inactive
ΔTm [22]: -0.3 °C
ΔTm [23]: 1.5 °C
IC50 [24]: Not Active
IC50 [25]: 0.51 µM

COc1ccc2c(c1)c(C(=O)Nc1cc(C(=O)OC(C)(C)C)cc(-c3cnn(C)c3)c1F)cn2C(C)=O
inhibition [26]: Active
Ratio IC50 [1]: 17
inhibition [27]: Active
inhibition [28]: Active
inhibition [29]: Active
IC50 [30]: 40 µM
IC50 [31]: 25.8 µM
Activity [2]: <10%
Activity [3]: Dose-dependent effect
IC50 [4, 38]: 2.01 µM
Ratio IC50 [5]: 17
inhibition [32]: Dose-dependent effect
Activity [6]: <10%
IC50 [7]: 2.13 µM
IC50 [33]: > 100 µM
IC50 [34]: 36 µM
IC50 [35]: 15.1 µM
Activity [8]: Dose-dependent effect
IC50 [36]: 7.46 µM
inhibition [37]: Active
